Converted amounts (≈) assume the structure as drawn. Read-outs that look alike come from different tables or passages of the source.
Tests used:
K. pneumoniae (KP) = assay: MIC, broth microdilution, Brooklyn hospital isolates: K. pneumoniae; type: cell-based; conditions: Klebsiella pneumoniae; KP (n = 71)
Description: In another study, the activity of Compound 1 against a collection of contemporary Gram-negative bacteria was determined. Unique patient isolates of P. aeruginosa (PA), A. baumannii (AB), K. pneumoniae (KP), E. coli (EC), and Enterobacter spp. (EB) from prior surveys at 16 Brooklyn, N.Y. hospitals were selected based on resistance patterns. The majority of isolates were fingerprinted by automated ribotyping. MICs were performed by broth microdilution. PCR was used to identify aminoglycoside-modifying enzymes (AMEs) in AB and KP and the KPC gene in Enterobacteriaceae (EN). The expression of the efflux genes mexA, C, E and X in PA, and adeB in AB was assessed by real-time RT-PCR.

[1] = GLP 14-day repeat-dose safety study in rat; type: in vivo
Source text: The Food and Drug Administration (FDA) has provided general guidance for estimating the maximum recommended starting dose (MRSD) for initial human clinical trials. The guidance states that the MRSD must be derived from the no observable adverse effect level (NOAEL) obtained in Good Laboratory Practice (GLP) nonclinical animal safety studies. The NOAEL for Compound 1 has been determined in GLP 14-day repeat-dose safety studies in both rat and dog. Estimation of the human equivalent dose (HED) at the NOAEL is based on both a surface area conversion factor (SACF) and the data from these studies. Based on this standard methodology, the HED for the predicted NOAEL in each species has been determined and is presented in Table 18.

[2] = First-in-human phase 1 study: plasma pharmacokinetics of Compound 1; type: in vivo; conditions: for AUC(0-inf) / Cmax / clearance / half-life: both sexes, human, plasma, intravenous, human plasma, single dose
Source text: The initial, first-in-human (FIH) phase 1 study was a double-blind, randomized, placebo-controlled, parallel-group, single- and multiple-dose-escalation study to assess the safety, tolerability, and pharmacokinetics of Compound 1 administered IV to healthy adult volunteers. In addition, the design of this FIH phase 1 study provided rationale and support for dosing for the proposed phase 2 study in patients with cUTI (see FIG. 11).
This study was designed with four escalating dose arms in both single-dose and multiple-dose phases. Compound 1 was formulated as a sterile solution at a concentration of 50 mg/mL in 10 mL glass vials for intravenous (IV) administration (“Compound 1 Injection”). To support high-dose, short-course therapy, the FIH phase 1 study investigated escalating doses with shorter durations at the higher dosages. At least 32 male and female healthy subjects (8 per Cohort) were randomized to receive a single dose of either Compound 1 Injection or placebo administered IV by 10 minute infusion in a double-blinded manner, as shown below:
Cohort 1a: 1 mg/kg Single Dose (SD) only
Cohort 1b: 4 mg/kg SD and Multiple Doses (MD) for 10 days
Cohort 2: 7 mg/kg SD and MD for 10 days
Cohort 3: 11 mg/kg SD and MD for 5 days
Cohort 4: 15 mg/kg SD and MD for 3 days
Blood and urine samples for safety laboratory tests were obtained during the screen period, before and after the single-dose, before and after the multiple-dose (additional samples were obtained during multiple-dose period depending on MD duration). Blood samples for PK analysis were obtained with the single dose and first and last multiple-doses at the following times:
5, 10, 15, 20, 30, 45, 60 minutes after the start of the infusion; and
1, 1.5, 2, 2.5 (Cohorts 3 and 4 only), 3, 4, 6, 8, 12, 16, 24, and 48 hours after the start of the infusion.
For subjects in the 10-day multiple-dose cohorts, additional blood samples for PK analysis were obtained predose on days 11, 13, and 15.

[3] = 1 mg/kg, 24 hours, Cohort 1 a (1 mg/kg), compartmental (2) analysis, ± SE
[4] = 1 mg/kg, 48 hours, Cohort 1a (1 mg/kg), noncompartmental analysis, ± SD
[5] = 4 mg/kg, 24 hours, Cohort 1b (4 mg/kg), compartmental (2) analysis, ± SE
[6] = 4 mg/kg, 48 hours, Cohort 1b (4 mg/kg), noncompartmental analysis, ± SD
[7] = 7 mg/kg, 24 hours, Cohort 2 (7 mg/kg), compartmental (2) analysis, ± SE
[8] = 7 mg/kg, 48 hours, Cohort 2 (7 mg/kg), noncompartmental analysis, ± SD
[9] = 11 mg/kg, 24 hours, Cohort 3 (11 mg/kg), compartmental (2) analysis, ± SE
[10] = 11 mg/kg, 48 hours, Cohort 3 (11 mg/kg), noncompartmental analysis, ± SD
[11] = 15 mg/kg, 24 hours, Cohort 4 (15 mg/kg), compartmental (2) analysis, ± SE
[12] = 15 mg/kg, 48 hours, Cohort 4 (15 mg/kg), noncompartmental analysis, ± SD
[13] = healthy volunteers, 1-15 mg/kg IV 10 minute infusion

Compound `CN[C@@H]1[C@@H](O)[C@@H](O[C@@H]2[C@@H](O)[C@H](O[C@H]3OC(CNCCO)=CC[C@H]3N)[C@@H](N)C[C@H]2NC(=O)[C@@H](O)CCN)OC[C@]1(C)O` [Compound 1, 6′-(2-Hydroxy-ethyl)-1-(4-amino-2(S)-hydroxy-butyryl)-sisomicin] has an MIC50 (K. pneumoniae (KP)) of 0.5 µg/mL (≈ 0.844 µM), an MIC90 (K. pneumoniae (KP)) of 1 µg/mL (≈ 1.69 µM) and an HED ([1]; from rat NOAEL, SACF 6.2) of 1.3 mg/kg. For the same compound, the “new toxicities” value ([1]; nonclinical GLP safety studies in rats) was “no new toxicities apart from those already known to the class”, the NOAEL at 14 days ([1]; rat, in vivo) was 8 mg/kg and the “accumulation over three days” value ([2]; Cohort 4, 15 mg/kg every 24 hours for three days) was “very little, in any, accumulation”. For the same compound, the AUC(0-inf) [2, 3] was 15000 ± 1000 ng·h/mL, the Cmax [2, 3] was 8000 ± 800 ng/mL and the clearance [2, 3] was 1.13 mL/min/kg. For the same compound, the half-life ([2]; 1 mg/kg, 24 hours, Cohort 1 a (1 mg/kg), compartmental (2) analysis, ± SE, read-out: t1/2 alpha (converted)) was 30 ± 6 min, the half-life ([2]; 1 mg/kg, 24 hours, Cohort 1 a (1 mg/kg), compartmental (2) analysis, ± SE, read-out: t1/2 beta (converted)) was 210 ± 12 min and the AUC(0-inf) ([2]; 1 mg/kg, 48 hours, Cohort 1a (1 mg/kg)) was 14000 ± 1000 ng·h/mL. For the same compound, the Cmax [2, 4] was 7000 ± 700 ng/mL, the clearance [2, 4] was 1.23 mL/min/kg and the AUC(0-inf) [2, 5] was 65000 ± 4000 ng·h/mL. For the same compound, the Cmax [2, 5] was 38000 ± 4000 ng/mL, the clearance [2, 5] was 1.03 mL/min/kg and the half-life ([2]; 4 mg/kg, 24 hours, Cohort 1b (4 mg/kg), compartmental (2) analysis, ± SE, read-out: t1/2 alpha (converted)) was 18 ± 6 min. It also gave a half-life ([2]; 4 mg/kg, 24 hours, Cohort 1b (4 mg/kg), compartmental (2) analysis, ± SE, read-out: t1/2 beta (converted)) of 180 ± 6 min, an AUC(0-inf) ([2]; 4 mg/kg, 48 hours, Cohort 1b (4 mg/kg)) of 61000 ± 8000 ng·h/mL and a Cmax [2, 6] of 32000 ± 5000 ng/mL. It also gave a clearance [2, 6] of 1.12 mL/min/kg, an AUC(0-inf) [2, 7] of 89000 ± 4000 ng·h/mL and a Cmax [2, 7] of 40000 ± 3000 ng/mL. For the same compound, the clearance [2, 7] was 1.3 mL/min/kg, the half-life ([2]; 7 mg/kg, 24 hours, Cohort 2 (7 mg/kg), compartmental (2) analysis, ± SE, read-out: t1/2 alpha (converted)) was 42 ± 6 min and the half-life ([2]; 7 mg/kg, 24 hours, Cohort 2 (7 mg/kg), compartmental (2) analysis, ± SE, read-out: t1/2 beta (converted)) was 186 ± 6 min. It also gave an AUC(0-inf) ([2]; 7 mg/kg, 48 hours, Cohort 2 (7 mg/kg)) of 88000 ± 12000 ng·h/mL, a Cmax [2, 8] of 46000 ± 7000 ng/mL and a clearance [2, 8] of 1.35 mL/min/kg. It also gave an AUC(0-inf) [2, 9] of 186000 ± 8000 ng·h/mL, a Cmax [2, 9] of 106000 ± 10000 ng/mL and a clearance [2, 9] of 0.983 mL/min/kg. For the same compound, the half-life ([2]; 11 mg/kg, 24 hours, Cohort 3 (11 mg/kg), compartmental (2) analysis, ± SE, read-out: t1/2 alpha (converted)) was 18 ± 6 min, the half-life ([2]; 11 mg/kg, 24 hours, Cohort 3 (11 mg/kg), compartmental (2) analysis, ± SE, read-out: t1/2 beta (converted)) was 186 ± 6 min and the AUC(0-inf) ([2]; 11 mg/kg, 48 hours, Cohort 3 (11 mg/kg)) was 176000 ± 34000 ng·h/mL. For the same compound, the Cmax [2, 10] was 114000 ± 27000 ng/mL, the clearance [2, 10] was 1.08 mL/min/kg and the AUC(0-inf) [2, 11] was 250000 ± 9000 ng·h/mL. The Cmax [2, 11] was 116000 ± 8000 ng/mL, the clearance [2, 11] was 1 mL/min/kg and the half-life ([2]; 15 mg/kg, 24 hours, Cohort 4 (15 mg/kg), compartmental (2) analysis, ± SE, read-out: t1/2 alpha (converted)) was 48 ± 6 min. It also gave a half-life ([2]; 15 mg/kg, 24 hours, Cohort 4 (15 mg/kg), compartmental (2) analysis, ± SE, read-out: t1/2 beta (converted)) of 186 ± 12 min, an AUC(0-inf) ([2]; 15 mg/kg, 48 hours, Cohort 4 (15 mg/kg)) of 242000 ± 37000 ng·h/mL and a half-life ([2]; 15 mg/kg, 48 hours, Cohort 4 (15 mg/kg), compartmental (2) analysis, read-out: t½ alpha (converted)) of 180 min. The half-life ([2]; 15 mg/kg, 48 hours, Cohort 4 (15 mg/kg), compartmental (2) analysis, read-out: t½ beta (converted)) was 900 min, the Cmax [2, 12] was 144000 ± 45000 ng/mL and the clearance [2, 12] was 1.05 mL/min/kg. For the same compound, the “derived serum clearance rate across doses” value [2, 13] was “remained constant” and the “dose proportionality of plasma PK” value [2, 13] was “clear dose proportionality”.

From patent publication US20120208781A1, “AMINOGLYCOSIDE DOSING REGIMENS” (Achaogen, Inc., priority 2009, published 2012)
